Experimental data from patent publication US20140113931A1, “SUBSTITUTED PICOLINAMIDE KINASE INHIBITORS” (Portola Pharmaceuticals, Inc., priority 2012, published 2014).

These molecules were tested against T1, full length active recombinant SYK enzyme (Homo sapiens, UniProt P43405) (assay: Inhibition of Syk tyrosine phosphorylation activity (LANCE TR-FRET kinase assay)). Conditions: 1 nM active SYK enzyme, 550 nM SYK-substrate, 100 μM ATP, 1 hour at room temperature.
T1 construct: full length active recombinant SYK enzyme (Millipore, CA); purchased Millipore, CA
Type: biochemical
Description: The in vitro and in vivo human Syk activities of the inventive compounds can be determined by various procedures known in the art, such as a test for their ability to inhibit the activity of human plasma Syk. […] The IC50 value is the concentration (in nM) of the compound required to provide 50% inhibition of human Syk proteolytic activity.
An in vitro assay for detecting and measuring inhibition activity against Syk is as follows:
SYK tyrosine phosphorylation activity is measured using the LANCE™ Technology developed by Perkin Elmer Life and Analytical Sciences (Boston, Mass.). LANCE™ refers to homogeneous time resolved fluorometry applications using techniques such as time-resolved fluorescence resonance energy transfer assay (TR-FRET) (see generally for procedures in Perkin Elmer Application Note—How to Optimize a Tyrosine Kinase Assay Using Time Resolved Fluorescence-Based LANCE Detection, wwww.perkinelmer.com/lifesciences). The assay principle involves detection of a phosphorylated substrate using energy transfer from a phosphospecific europium-labeled antibody to streptavidin-allophycocyanin as an acceptor.
Molecules are reconstituted in 30% DMSO and serially diluted 1:3 with the final dilution containing DMSO in the absence of the candidate molecule. The final DMSO concentration in the assay is 3%. Kinase assays are performed as a two part reaction. The first reaction is a kinase reaction and which comprises of a candidate molecule, full length active recombinant SYK enzyme (Millipore, CA) and biotin-labeled SYK-specific substrate biotin-DEEDYESP-OH. The second reaction involves termination of the kinase reaction and the simultaneous addition of the detection reagents-europium-labeled anti-phosphotyrosine reagent (Eu-W1024-PY100, Perkin Elmer, Boston, Mass.) and Streptavidin-Allophycocyanin detection reagent (SA-APC, Prozyme, CA). The kinase reaction is performed in a black U-bottom 96-well microtitre plate. The final reaction volume is 50 μL and contains a final concentration of 1 nM active SYK enzyme, 550 nM SYK-substrate, and 100 μM ATP diluted in a buffer containing 50 mM Tris pH 7.5, 5 mM MgCl2, and 1 mM DTT. The reaction is allowed to proceed for 1 hour at room temperature. The quench buffer contains 100 mM Tris pH 7.5, 300 mM NaCl2, 20 mM EDTA, 0.02% Brij35, and 0.5% BSA. The detection reagents are added to the reaction mixture at the following dilutions-1:500 for Eu-W1024-PY100 and 1:250 for SA-APC. The kinase reaction is terminated by the addition of 50 μL quench buffer containing the detection reagents. The detection is allowed to proceed for 1 hr at room temperature. Detection of the phosphorlated substrate in the absence and presence of inhibitors is measured in the TR-FRET instrument, Analyst HT (Molecular Probes, Sunnyvale, Calif.) and the condition for measurements are set up using CriterionHost Release 2.0 (Molecular Probes, Sunnyvale, Calif.). The settings used are a follows: excitation 360 nm, emission 665-7.5 nm, beam splitter 350 nm 50/50, flash 100 pulses, delay 60 us, integration 400 us, z-height 2 mm. Inhibition of SYK-tyrosine kinase activity is calculated as the maximum response observed in the presence of inhibitor, compared to that in the absence of inhibitor. IC50s were derived by non-linear regression analysis.
`CC[C@@H](Nc1cnc(C(N)=O)c(Nc2cc(C)ns2)c1)C(N)=O` [Example 5, (R)-5-(1-amino-1-oxobutan-2-ylamino)-3-(3-methylisothiazol-5-ylamino)picolinamide] showed an IC50 of 10 to 100 nM.
`CC(C)C[C@@H](Nc1cnc(C(N)=O)c(Nc2ccc3cnccc3c2)c1)C(N)=O` [Example 17, (R)-5-(1-amino-4-methyl-1-oxopentan-2-ylamino)-3-(isoquinolin-6-ylamino)picolinamide] showed an IC50 of 10 to 100 nM.
`NC(=O)c1ncc(N[C@@H]2CCCC[C@@H]2N)cc1Nc1cccc(-c2ncco2)c1` [Example 55, 5-(((1R,2S)-2-aminocyclohexyl)amino)-3-((3-(oxazol-2-yl)phenyl)amino)picolinamide] gave an IC50 of 10 to 100 nM.
With `CC(C)(C)C[C@@H](Nc1cnc(C(N)=O)c(Nc2ccc3cccnc3c2)c1)C(N)=O` [Example 41, (R)-5-(1-amino-4,4-dimethyl-1-oxopentan-2-ylamino)-3-(quinolin-7-ylamino)picolinamide] the IC50 was 1 to 10 nM.
`Cc1cc(Nc2cc(N[C@@H]3CCOC[C@@H]3N)cnc2C(N)=O)sn1` [Example 23, 5-((3R,4R)-3-aminotetrahydro-2H-pyran-4-ylamino)-3-(3-methylisothiazol-5-ylamino)picolinamide] gave an IC50 of 1 to 10 nM.
`Cc1cc(Nc2cc(N[C@H](CC3CC3)C(N)=O)cnc2C(N)=O)sn1` [Example 3, (R)-5-(1-amino-3-cyclopropyl-1-oxopropan-2-ylamino)-3-(3-methylisothiazol-5-ylamino)picolinamide] showed an IC50 of 1 to 10 nM.
`NC(=O)c1ncc(N[C@@H]2CCCC[C@@H]2N)cc1Nc1cc(-c2ccccc2)no1` [Example 8, 5-((1R,2S)-2-aminocyclohexylamino)-3-(3-phenylisoxazol-5-ylamino)picolinamide] showed an IC50 of 1 to 10 nM.
In the case of `CC(C)(C)C[C@@H](Nc1cnc(C(N)=O)c(Nc2cc(F)c3ncccc3c2)c1)C(N)=O` [Example 40, (R)-5-(1-amino-4,4-dimethyl-1-oxopentan-2-ylamino)-3-(8-fluoroquinolin-6-ylamino)picolinamide], the IC50 is reported as 10 to 100 nM.
`NC(=O)c1ncc(N[C@@H]2CCCC[C@@H]2N)cc1Nc1ccc2ncccc2c1` [Example 27, 5-((1R,2S)-2-aminocyclohexylamino)-3-(quinolin-6-ylamino)picolinamide] gave an IC50 of 10 to 100 nM.
Work on `CC(C)C[C@@H](Nc1cnc(C(N)=O)c(Nc2cc(-c3ccccc3)no2)c1)C(N)=O` [Example 11, (R)-5-(1-amino-4-methyl-1-oxopentan-2-ylamino)-3-(3-phenylisoxazol-5-ylamino)picolinamide] yielded an IC50 of 1 to 10 nM.
Work on `NC(=O)c1ncc(N[C@@H]2CCCC[C@@H]2N)cc1Nc1nc(-c2ccccc2)no1` [Example 29, 5-(((1R,2S)-2-aminocyclohexyl)amino)-3-((3-phenyl-1,2,4-oxadiazol-5-yl)amino)picolinamide] yielded an IC50 of 10 to 100 nM.
Molecule `NC(=O)c1ncc(N[C@@H]2CCCC[C@@H]2N)cc1Nc1ccc2cnccc2c1` [Example 12, 5-((1R,2S)-2-aminocyclohexylamino)-3-(isoquinolin-6-ylamino)picolinamide] has an IC50 of 10 to 100 nM.
`NC(=O)c1ncc(N[C@@H]2CCCC[C@@H]2N)cc1Nc1cc(-c2cccnc2)no1` [Example 50, 5-((1R,2S)-2-aminocyclohexylamino)-3-(3-(pyridin-3-yl)isoxazol-5-ylamino)picolinamide] showed an IC50 of 10 to 100 nM.
With `Cc1cc(Nc2cc(NC3(C(N)=O)CC3)cnc2C(N)=O)sn1` [Example 32, 5-(1-carbamoylcyclopropylamino)-3-(3-methylisothiazol-5-ylamino)picolinamide] the IC50 was 1 to 10 nM.
Work on `CC(C)C[C@@H](Nc1cnc(C(N)=O)c(Nc2cc(-c3ccncc3)no2)c1)C(N)=O` [Example 47, (R)-5-(1-amino-4-methyl-1-oxopentan-2-ylamino)-3-(3-(pyridin-4-yl)isoxazol-5-ylamino)picolinamide] yielded an IC50 of 1 to 10 nM.
`NC(=O)c1ncc(N[C@@H]2CCCC[C@@H]2N)cc1Nc1cc(C2CC2)no1` [Example 34, 5-((1R,2S)-2-aminocyclohexylamino)-3-(3-cyclopropylisoxazol-5-ylamino)picolinamide] gave an IC50 of 1 to 10 nM.
With `CC[C@@H](Nc1cnc(C(N)=O)c(Nc2cc(C3CC3)ns2)c1)C(N)=O` [Example 38, (R)-5-(1-amino-1-oxobutan-2-ylamino)-3-(3-cyclopropylisothiazol-5-ylamino)picolinamide] the IC50 was 1 to 10 nM.
`Cc1cc(Nc2cc(N[C@H](CCS(C)(=O)=O)C(N)=O)cnc2C(N)=O)sn1` [Example 45, (R)-5-(1-amino-4-(methylsulfonyl)-1-oxobutan-2-ylamino)-3-(3-methylisothiazol-5-ylamino)picolinamide] was tested, and the IC50 was 10 to 100 nM.
`Cc1cc(Nc2cc(N[C@H]3CC[C@@H](N)CC3)cnc2C(N)=O)sn1` [Example 26, 5-((1S,4S)-4-aminocyclohexylamino)-3-(3-methylisothiazol-5-ylamino)picolinamide] showed an IC50 of 10 to 100 nM.
In the case of `Cc1cc(Nc2cc(N[C@H](CC(C)C)C(N)=O)cnc2C(N)=O)sn1` [Example 1, (R)-5-(1-amino-4-methyl-1-oxopentan-2-ylamino)-3-(3-methylisothiazol-5-ylamino)picolinamide], the IC50 is reported as 1 to 10 nM.
